Assay results from article PMC2728345 (Toxicology and applied pharmacology, 2009).
Positions count from the first letter of the chain named. “Also recorded” adds a separate entry of the source.

Key:
carboxylesterase HCE2 = carboxylesterase HCE2 (Homo sapiens, UniProt O00748); experiment: Hydrolysis of pyrethroids by recombinant HCE2; assay type: in vitro ADME; conditions: for preference for hydrolysis by HCE2 over HCE1: recombinant HCE2 vs HCE1 lysates, Tris-HCl pH 7.4
[1] = for hydrolysis by pooled human liver microsomes (rate group / extent, in words): 50 µg protein, pyrethroid 200 µM mixed with equal volume, Tris-HCl pH 7.4, 37°C
rat PXR = target: T1, rat PXR (Rattus norvegicus, UniProt Q9R1A7); experiment: Activation of rat PXR, cotransfection with CYP3A4-DP-Luc in HepG2; conditions: 24 h
T1 sequence (Q9R1A7 1-431): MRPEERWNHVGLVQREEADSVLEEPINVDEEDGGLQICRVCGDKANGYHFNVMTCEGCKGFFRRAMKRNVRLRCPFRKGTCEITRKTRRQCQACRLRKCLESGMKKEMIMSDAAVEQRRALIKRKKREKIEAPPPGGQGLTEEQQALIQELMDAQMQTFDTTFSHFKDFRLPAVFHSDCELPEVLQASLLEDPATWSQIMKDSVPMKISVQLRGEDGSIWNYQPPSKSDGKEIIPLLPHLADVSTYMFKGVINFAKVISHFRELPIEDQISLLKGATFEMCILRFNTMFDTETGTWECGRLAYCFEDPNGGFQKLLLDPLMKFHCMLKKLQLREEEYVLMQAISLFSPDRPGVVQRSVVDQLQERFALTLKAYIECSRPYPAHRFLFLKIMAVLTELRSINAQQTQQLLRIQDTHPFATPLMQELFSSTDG

CYP3A4 [2] = experiment: CYP3A4 expression in human primary hepatocytes; conditions: 10 µM, 24 h; for induction of CYP3A4 mRNA: four donors
human PXR variant L412I = target: T2, human PXR variant L412I (Homo sapiens, UniProt O75469, L412I); conditions: HepG2 cotransfection, 10 µM, 24 h
T2 sequence (O75469 1-434 L412I): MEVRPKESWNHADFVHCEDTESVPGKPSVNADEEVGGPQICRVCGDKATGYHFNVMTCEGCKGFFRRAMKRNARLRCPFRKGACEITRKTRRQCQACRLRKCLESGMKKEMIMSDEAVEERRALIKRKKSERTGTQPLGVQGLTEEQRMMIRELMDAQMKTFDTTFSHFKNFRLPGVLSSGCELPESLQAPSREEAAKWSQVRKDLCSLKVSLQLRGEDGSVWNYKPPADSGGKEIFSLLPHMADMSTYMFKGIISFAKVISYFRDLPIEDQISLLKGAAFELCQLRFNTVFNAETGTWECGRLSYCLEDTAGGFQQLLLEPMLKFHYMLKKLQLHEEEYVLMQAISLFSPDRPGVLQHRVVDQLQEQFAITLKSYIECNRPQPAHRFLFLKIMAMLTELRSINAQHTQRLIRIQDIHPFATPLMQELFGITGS

human PXR variant S208F = target: T3, human PXR variant S208F (Homo sapiens, UniProt O75469, S208F); conditions: HepG2 cotransfection, 10 µM, 24 h; words: compared with wild-type PXR
T3 sequence (O75469 1-434 S208F): T2 sequence (O75469 1-434 L412I) with S208F, I412L

rats or mice = conditions: in vivo, po; cited from earlier work
carboxylesterase HCE1 = target: T4, carboxylesterase HCE1 (Homo sapiens, UniProt P23141); experiment: Hydrolysis of pyrethroids by recombinant HCE1; assay type: in vitro ADME; conditions: for preference for hydrolysis by HCE1 over HCE2 (words): recombinant HCE1 vs HCE2 lysates, Tris-HCl pH 7.4
T4 sequence (P23141 18-567): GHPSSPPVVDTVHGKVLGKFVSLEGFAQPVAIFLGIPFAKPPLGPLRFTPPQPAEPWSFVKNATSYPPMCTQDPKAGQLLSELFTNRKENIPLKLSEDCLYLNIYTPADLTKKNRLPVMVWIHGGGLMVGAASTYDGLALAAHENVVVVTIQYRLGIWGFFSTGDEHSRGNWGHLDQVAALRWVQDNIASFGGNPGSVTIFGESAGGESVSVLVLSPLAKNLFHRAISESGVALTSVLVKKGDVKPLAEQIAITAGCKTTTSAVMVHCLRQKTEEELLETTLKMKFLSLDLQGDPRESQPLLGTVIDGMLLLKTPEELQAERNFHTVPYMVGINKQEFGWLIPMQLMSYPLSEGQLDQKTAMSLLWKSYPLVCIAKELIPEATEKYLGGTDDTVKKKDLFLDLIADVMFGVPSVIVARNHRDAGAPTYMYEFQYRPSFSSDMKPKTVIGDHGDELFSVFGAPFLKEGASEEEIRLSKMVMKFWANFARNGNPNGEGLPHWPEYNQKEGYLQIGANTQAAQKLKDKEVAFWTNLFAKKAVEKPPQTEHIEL

CYP3A4 [3] = experiment: CYP3A4 mRNA in cell lines HepG2, Hop92 and LS180; assay type: cell-based, human; conditions: 24 h
human PXR [4] = target: T5, human PXR (Homo sapiens, UniProt O75469); experiment: Activation of human PXR in stable line hPXR-HRE; conditions: 10 µM, 24 h, ratio over DMSO
T5 sequence (O75469 1-434): T2 sequence (O75469 1-434 L412I) with I412L

CYP3A4 [5] = experiment: Metabolism of pyrethroids by recombinant CYP3A4; conditions: Supersomes 5 pmol P450, pyrethroid 50 µM, NRS, 37°C
[6] = assay type: in vitro ADME, human; conditions: ten individual microsomal samples, 100 µM bioallethrin, 30 min
human PXR [7] = target: T5, human PXR; experiment: Activation of human PXR in hPXR-HRE cells transfected with HCE1, HCE2 or vector

Sequence of carboxylesterase HCE2 (O00748 27-559): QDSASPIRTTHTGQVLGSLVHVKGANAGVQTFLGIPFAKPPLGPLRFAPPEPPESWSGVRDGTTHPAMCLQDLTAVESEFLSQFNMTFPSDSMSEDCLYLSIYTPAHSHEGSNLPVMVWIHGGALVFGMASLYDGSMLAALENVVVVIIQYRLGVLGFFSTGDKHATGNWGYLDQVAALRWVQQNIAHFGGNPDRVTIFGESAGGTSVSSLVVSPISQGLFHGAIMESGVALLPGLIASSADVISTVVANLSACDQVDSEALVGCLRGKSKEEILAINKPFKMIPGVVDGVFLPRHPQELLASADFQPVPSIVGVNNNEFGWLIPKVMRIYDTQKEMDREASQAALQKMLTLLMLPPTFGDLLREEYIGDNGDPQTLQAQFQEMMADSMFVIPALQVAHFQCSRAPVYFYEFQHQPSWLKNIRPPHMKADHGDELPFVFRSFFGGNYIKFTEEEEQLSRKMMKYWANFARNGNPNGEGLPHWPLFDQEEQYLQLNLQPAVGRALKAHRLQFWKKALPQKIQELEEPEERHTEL

Row | Structure (SMILES) | hydrolysis by pooled human liver microsomes (rate group / extent, in words) [1] | preference for hydrolysis by HCE2 over HCE1 (carboxylesterase HCE2) | activation of rat PXR (rat PXR) | induction of CYP3A4 mRNA (CYP3A4 [2]) | preference for hydrolysis by HCE1 over HCE2 (words) (carboxylesterase HCE1) | activation of human PXR (human PXR [4]) | extent of metabolism by CYP3A4 (CYP3A4 [5]) | also measured
1 | CC1(C)[C@H](C(=O)OCc2cccc(Oc3ccccc3)c2)[C@@H]1C=C(Cl)Cl [Per-2, cis-permethrin] | low rate | – | – | – | – | – | – | hydrolysis by HCE2 relative to HCE1 (carboxylesterase HCE2; recombinant enzymes): 7 times
2 | Cc1c(COC(=O)[C@@H]2[C@H](/C=C(\Cl)C(F)(F)F)C2(C)C)cccc1-c1ccccc1 (racemic) [Bifenthrin] | – | HCE2 preferably hydrolyzed | efficaciously activated rat PXR | ≥ 2.5 fold | – | – | – | –
3 | CC(C)[C@H](C(=O)O[C@H](C#N)c1cccc(Oc2ccccc2)c1)c1ccc(Cl)cc1 [Esfenvalerate] | low rate | – | – | ≥ 2.5 fold | HCE1 preferably hydrolyzed | – | – | activation of PXR variant L412I compared with wild-type PXR (human PXR variant L412I): less extent than the wild-type PXR; activation of PXR variant S208F (human PXR variant S208F): no differences; LD50 (rats or mice): 325 mg/kg; concentration dependence of CYP3A4 mRNA induction (CYP3A4 [3]; HepG2 cells, 0–10 µM): concentration-dependent manner; lowest concentration with significant induction of CYP3A4 mRNA (CYP3A4 [3]; HepG2 cells, 0–10 µM): 0.5 µM; induction of CYP3A4 mRNA in HepG2 (CYP3A4 [3]; HepG2 cells, 1 µM): significant induction; induction of CYP3A4 mRNA in Hop92 (CYP3A4 [3]; Hop92 cells, 1 µM): significant induction; induction of CYP3A4 mRNA in LS180 (CYP3A4 [3]; LS180 cells, 1 µM): significant induction
4 | CC1(C)C(C=C(Cl)Cl)C1C(=O)OCc1cccc(Oc2ccccc2)c1 (stereo not drawn) [Permethrin] | – | HCE2 preferably hydrolyzed | efficaciously activated rat PXR | – | – | relatively weak activators of human PXR | – | –
5 | CC1(C)[C@H](C=C(Cl)Cl)[C@H]1C(=O)OCc1cccc(Oc2ccccc2)c1 [Per-1, trans-permethrin] | high rate | comparably hydrolyzed by both enzymes | – | – | – | – | – | hydrolysis by HCE2 faster than by HCE1 (carboxylesterase HCE2; recombinant enzymes): 15%
6 | CC(C)[C@@H](Nc1ccc(C(F)(F)F)cc1Cl)C(=O)OC(C#N)c1cccc(Oc2ccccc2)c1 (stereo partly drawn) [tau-Fluvalinate] | low rate | HCE2 preferably hydrolyzed | – | – | – | 3.5 fold | least extent | –
7 | C=CCC1=C(C)C(OC(=O)[C@@H]2[C@@H](C=C(C)C)C2(C)C)CC1=O (stereo partly drawn) [Bioallethrin] | rapidly hydrolyzed | – | 2.0 fold | relatively weaker inducers; also recorded: least induction | HCE1 preferably hydrolyzed | activated PXR with less potency | greatest extent | variation of overall hydrolysis among individual samples [6]: ~ 2 fold; hydrolysis rate relative to bifenthrin ([1]; pooled human liver microsomes): 8 times
8 | CC(C)=C[C@@H]1[C@@H](C(=O)OCc2coc(Cc3ccccc3)c2)C1(C)C [Bioresmethrin] | highest extent | – | – | relatively weaker inducers; also recorded: least induction | hydrolyzed overwhelmingly by HCE1 | 1.5 fold | – | LD50 (rats or mice): 1244 mg/kg; hydrolysis by HCE1 relative to esfenvalerate (carboxylesterase HCE1; recombinant HCE1): 7 times; preference for hydrolysis by HCE1 over HCE2 (words) (carboxylesterase HCE1; listed as bioresmethrin): HCE1 preferably hydrolyzed
9 | CC(C)=CC1C(C(=O)OCN2C(=O)C3=C(CCCC3)C2=O)C1(C)C (stereo not drawn) [Tetramethrin] | – | HCE2 preferably hydrolyzed; also recorded: slightly more active than HCE1 | – | relatively weaker inducers; also recorded: minimal induction; also recorded: least induction; also recorded: weakest CYP3A4 inducer | – | – | greatest extent | hydrolysis rate relative to tau-fluvalinate ([1]; pooled human liver microsomes): 9 times; lowest concentration causing significant activation of PXR, HCE1 (human PXR [7]; HCE1 co-transfected cells, 0.5-10 µM): 5 µM; lowest concentration causing significant activation of PXR, HCE2 (human PXR [7]; HCE2-cotransfected cells, 0.5-10 µM): > 10 µM; lowest concentration causing significant activation of PXR, vector (human PXR [7]; cells cotransfected by the vector, 0.5-10 µM): 1 µM; effect of carboxylesterase cotransfection on PXR activation (human PXR [7]; hPXR-HRE cells transfected with HCE1 or HCE2 vs vector, 10 µM): markedly decreased; decrease in PXR activation, HCE1 versus HCE2 cotransfection (human PXR [7]; hPXR-HRE cells, 10 µM): decreased more PXR activation than HCE1; CYP3A4 protein (Western blotting) (CYP3A4 [2]): slight increase
